The values below come from ChEMBL document CHEMBL4602617, “Discovery and optimization of heteroaryl piperazines as potent and selective PI3Kδ inhibitors” (Bioorg Med Chem Lett, 2020).

Assay [1] addresses Serine/threonine-protein kinase MRCK alpha (Homo sapiens, UniProt Q5VT25). Description: Inhibition of recombinant human His-tagged MRCKalpha catalytic domain (1 to 473 residues) expressed in baculovirus expression system using serine/threonine-13 peptide as substrate incubated for 60 mins in presence of ATP by Z'-LYTE assay.
In assay [2] the target is Tyrosine-protein kinase receptor TYRO3 (Homo sapiens, UniProt Q06418). In words: Inhibition of recombinant human GST-tagged RSE catalytic domain (451 to 890 residues) expressed in baculovirus expression system using tyrosine-2 peptide as substrate incubated for 60 mins in presence of ATP by Z'-LYTE assay.
Tyrosine-protein kinase receptor TYRO3, sequence (Q06418 whole entry, the tested form may be a part): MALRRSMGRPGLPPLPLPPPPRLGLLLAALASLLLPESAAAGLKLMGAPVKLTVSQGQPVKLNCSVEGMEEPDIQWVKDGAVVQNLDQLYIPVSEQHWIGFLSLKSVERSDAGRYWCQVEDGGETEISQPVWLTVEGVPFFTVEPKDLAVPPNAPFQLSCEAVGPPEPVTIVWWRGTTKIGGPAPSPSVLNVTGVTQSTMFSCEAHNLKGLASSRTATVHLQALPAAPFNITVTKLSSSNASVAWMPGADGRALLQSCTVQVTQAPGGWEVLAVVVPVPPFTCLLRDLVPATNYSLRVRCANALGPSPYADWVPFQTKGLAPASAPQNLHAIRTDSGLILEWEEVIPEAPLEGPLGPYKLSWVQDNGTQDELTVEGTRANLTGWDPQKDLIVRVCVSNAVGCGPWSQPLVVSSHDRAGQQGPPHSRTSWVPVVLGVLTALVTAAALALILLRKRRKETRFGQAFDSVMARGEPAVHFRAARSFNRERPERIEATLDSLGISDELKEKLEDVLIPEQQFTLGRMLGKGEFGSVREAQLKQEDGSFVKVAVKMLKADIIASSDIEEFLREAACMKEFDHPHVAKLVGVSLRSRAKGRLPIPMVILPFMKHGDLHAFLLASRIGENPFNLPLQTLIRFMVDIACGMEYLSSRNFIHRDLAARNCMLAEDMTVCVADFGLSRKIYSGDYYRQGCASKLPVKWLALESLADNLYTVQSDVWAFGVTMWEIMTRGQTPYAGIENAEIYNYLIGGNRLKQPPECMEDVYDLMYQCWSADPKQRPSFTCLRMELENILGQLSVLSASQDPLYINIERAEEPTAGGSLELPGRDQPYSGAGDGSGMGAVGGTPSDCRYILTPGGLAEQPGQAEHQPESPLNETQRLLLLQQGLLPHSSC
In assay [3] the target is Maternal embryonic leucine zipper kinase (Homo sapiens, UniProt Q14680). In words: Inhibition of recombinant human GST-tagged MELK catalytic domain expressed in baculovirus expression system using serine/threonine-17 peptide as substrate incubated for 60 mins in presence of ATP by Z'-LYTE assay.
Maternal embryonic leucine zipper kinase, sequence (Q14680 whole entry, the tested form may be a part): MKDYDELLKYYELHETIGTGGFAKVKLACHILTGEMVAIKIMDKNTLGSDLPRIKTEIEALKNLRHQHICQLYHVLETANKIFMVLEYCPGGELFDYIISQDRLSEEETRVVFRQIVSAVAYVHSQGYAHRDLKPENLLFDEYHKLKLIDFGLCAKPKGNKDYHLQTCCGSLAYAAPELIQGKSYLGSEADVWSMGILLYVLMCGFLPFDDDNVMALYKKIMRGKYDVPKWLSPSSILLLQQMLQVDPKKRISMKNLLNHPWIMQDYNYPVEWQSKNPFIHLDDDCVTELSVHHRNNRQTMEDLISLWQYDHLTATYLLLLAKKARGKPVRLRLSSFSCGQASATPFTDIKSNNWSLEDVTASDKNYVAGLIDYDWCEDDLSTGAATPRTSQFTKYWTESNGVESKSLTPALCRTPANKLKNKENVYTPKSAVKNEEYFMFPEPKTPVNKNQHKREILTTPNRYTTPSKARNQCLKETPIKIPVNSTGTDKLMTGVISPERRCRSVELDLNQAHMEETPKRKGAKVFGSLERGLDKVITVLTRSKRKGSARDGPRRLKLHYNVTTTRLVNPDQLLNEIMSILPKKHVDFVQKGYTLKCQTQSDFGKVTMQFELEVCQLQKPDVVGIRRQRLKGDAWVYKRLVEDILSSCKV
The target in assay [4] is Phosphatidylinositol 4-phosphate 3-kinase C2 domain-containing subunit beta (Homo sapiens, UniProt O00750). Description: Inhibition of recombinant GST-tagged human PIK3C2B catalytic domain expressed in baculovirus expression system using PI as substrate after 1 hr in presence of ATP by Adapta assay.
Assay [5] deals with RAF proto-oncogene serine/threonine-protein kinase (Homo sapiens, UniProt P04049, Y340D/Y341D). Description: Inhibition of recombinant human GST-tagged RAF1 Y340D Y341D mutant catalytic domain expressed in baculovirus expression system using serine/threonine-3 peptide as substrate incubated for 60 mins in presence of ATP by Z'-LYTE assay.
For assay [6], the target named is Ribosomal protein S6 kinase beta-1 (Homo sapiens, UniProt P23443). Description: Inhibition of recombinant human GST-tagged p70S6K catalytic domain expressed in baculovirus expression system using serine/threonine-7 peptide as substrate incubated for 60 mins in presence of ATP by Z'-LYTE assay.
Ribosomal protein S6 kinase beta-1, sequence (P23443 whole entry, the tested form may be a part): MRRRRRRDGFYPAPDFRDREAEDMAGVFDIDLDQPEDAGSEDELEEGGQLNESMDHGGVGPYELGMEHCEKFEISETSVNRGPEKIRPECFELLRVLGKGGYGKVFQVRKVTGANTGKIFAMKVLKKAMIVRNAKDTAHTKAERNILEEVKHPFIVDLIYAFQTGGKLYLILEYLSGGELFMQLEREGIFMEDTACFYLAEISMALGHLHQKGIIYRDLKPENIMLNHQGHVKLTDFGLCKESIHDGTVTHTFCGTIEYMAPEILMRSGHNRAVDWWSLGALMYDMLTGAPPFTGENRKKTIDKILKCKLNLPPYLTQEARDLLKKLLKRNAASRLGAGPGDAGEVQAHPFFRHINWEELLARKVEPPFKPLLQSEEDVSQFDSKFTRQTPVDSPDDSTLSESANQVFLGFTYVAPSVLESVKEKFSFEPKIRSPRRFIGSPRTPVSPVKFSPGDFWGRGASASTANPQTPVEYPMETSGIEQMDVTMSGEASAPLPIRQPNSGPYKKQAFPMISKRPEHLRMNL
Assay [7] has as its target Androgen receptor (Homo sapiens) (UniProt P10275). In words: Displacement of [3H]methyltrienolone from human LNCAP cells derived androgen receptor at 10 uM measured after 20 hrs by scintillation counting method relative to control. Format: cell-based. (In general: In a radioligand displacement assay an active substance lowers the binding of a labelled ligand.)

Serine/threonine-protein kinase MRCK alpha, sequence (Q5VT25 whole entry, the tested form may be a part): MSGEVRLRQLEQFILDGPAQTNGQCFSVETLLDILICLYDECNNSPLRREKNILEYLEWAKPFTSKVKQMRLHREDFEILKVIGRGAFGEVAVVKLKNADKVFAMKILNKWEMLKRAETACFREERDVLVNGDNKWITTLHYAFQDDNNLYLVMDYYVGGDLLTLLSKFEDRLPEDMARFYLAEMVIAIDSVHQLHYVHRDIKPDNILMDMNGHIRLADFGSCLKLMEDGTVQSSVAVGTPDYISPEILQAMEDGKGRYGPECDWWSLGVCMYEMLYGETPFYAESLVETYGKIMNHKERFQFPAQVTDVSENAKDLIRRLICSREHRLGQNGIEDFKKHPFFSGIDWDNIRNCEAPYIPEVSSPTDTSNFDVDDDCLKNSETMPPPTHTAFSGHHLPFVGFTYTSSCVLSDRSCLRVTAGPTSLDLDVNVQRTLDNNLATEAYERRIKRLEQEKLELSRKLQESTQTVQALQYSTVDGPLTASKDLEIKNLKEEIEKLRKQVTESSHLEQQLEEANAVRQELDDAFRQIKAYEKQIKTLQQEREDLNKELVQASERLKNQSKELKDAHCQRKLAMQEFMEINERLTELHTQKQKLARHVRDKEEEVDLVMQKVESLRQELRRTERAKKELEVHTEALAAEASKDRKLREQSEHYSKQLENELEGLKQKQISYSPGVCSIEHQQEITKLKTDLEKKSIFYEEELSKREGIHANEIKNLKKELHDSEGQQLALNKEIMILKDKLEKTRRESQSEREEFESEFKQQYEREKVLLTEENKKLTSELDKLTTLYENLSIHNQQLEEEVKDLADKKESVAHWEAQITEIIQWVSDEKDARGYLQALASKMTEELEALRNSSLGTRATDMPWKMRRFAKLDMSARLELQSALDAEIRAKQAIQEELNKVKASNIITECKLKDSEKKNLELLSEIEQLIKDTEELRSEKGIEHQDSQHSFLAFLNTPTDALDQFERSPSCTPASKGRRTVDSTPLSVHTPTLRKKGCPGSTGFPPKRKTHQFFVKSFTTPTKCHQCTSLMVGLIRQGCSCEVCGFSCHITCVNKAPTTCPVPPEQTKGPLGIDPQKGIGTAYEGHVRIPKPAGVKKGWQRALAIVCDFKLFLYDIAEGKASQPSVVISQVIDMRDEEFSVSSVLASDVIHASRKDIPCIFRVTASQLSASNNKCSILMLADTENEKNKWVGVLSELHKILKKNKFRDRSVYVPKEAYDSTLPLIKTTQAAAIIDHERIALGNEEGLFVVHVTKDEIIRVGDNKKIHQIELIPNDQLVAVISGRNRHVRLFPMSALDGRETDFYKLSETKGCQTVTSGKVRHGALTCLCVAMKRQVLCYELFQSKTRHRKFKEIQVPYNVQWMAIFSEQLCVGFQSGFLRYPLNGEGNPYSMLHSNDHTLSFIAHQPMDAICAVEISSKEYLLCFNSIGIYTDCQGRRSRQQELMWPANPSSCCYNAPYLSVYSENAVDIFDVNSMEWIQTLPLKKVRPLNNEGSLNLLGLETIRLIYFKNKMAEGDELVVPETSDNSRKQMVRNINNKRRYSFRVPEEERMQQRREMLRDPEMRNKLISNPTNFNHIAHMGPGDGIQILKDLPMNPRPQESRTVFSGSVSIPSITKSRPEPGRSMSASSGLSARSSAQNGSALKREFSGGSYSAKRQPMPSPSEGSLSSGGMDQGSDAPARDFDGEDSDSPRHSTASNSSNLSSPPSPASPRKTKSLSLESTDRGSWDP
Androgen receptor (Homo sapiens), sequence (P10275 whole entry): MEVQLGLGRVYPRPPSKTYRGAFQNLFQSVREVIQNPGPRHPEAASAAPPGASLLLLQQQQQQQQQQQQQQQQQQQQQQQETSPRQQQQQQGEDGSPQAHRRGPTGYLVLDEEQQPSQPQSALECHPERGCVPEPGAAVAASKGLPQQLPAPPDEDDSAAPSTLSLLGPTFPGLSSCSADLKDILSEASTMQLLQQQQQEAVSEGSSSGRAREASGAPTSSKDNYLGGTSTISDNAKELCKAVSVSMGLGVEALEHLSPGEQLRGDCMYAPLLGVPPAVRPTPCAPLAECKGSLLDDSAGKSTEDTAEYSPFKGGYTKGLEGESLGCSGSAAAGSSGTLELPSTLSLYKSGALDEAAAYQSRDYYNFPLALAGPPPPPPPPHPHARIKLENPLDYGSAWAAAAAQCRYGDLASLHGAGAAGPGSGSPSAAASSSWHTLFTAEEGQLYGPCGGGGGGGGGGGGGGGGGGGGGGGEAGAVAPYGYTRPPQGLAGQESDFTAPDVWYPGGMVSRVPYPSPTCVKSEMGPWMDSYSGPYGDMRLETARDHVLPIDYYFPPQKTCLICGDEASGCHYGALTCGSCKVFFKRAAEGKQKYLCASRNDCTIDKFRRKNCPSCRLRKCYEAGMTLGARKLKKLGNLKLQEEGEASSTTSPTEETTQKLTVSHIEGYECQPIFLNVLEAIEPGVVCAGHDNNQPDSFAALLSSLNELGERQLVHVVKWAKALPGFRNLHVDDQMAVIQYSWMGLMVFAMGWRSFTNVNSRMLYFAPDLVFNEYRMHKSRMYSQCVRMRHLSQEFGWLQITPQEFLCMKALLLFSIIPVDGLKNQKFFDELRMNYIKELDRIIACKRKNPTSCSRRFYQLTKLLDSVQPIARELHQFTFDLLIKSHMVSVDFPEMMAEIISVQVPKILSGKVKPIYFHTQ

As to `C[C@@H]1C[C@H]1C(=O)N1CCN(c2cnc(C#N)c(-c3cnn(C)c3)n2)C[C@H]1C`, the IC50 was > 100 µM in assay [1]; > 100 µM in assay [2]; > 100 µM in assay [3]; 40.5 µM in assay [4]; > 100 µM in assay [5]; > 100 µM in assay [6]. Also, the inhibition in assay [7] came out at 17%.

As usually defined, the IC50 is the concentration that inhibits the measured activity by half. Usually inhibition stands for the relative decrease from the control value, in per cent. Low values mean a response near the control, high ones a response far below the control.
